Experimental data taken from patent US10501449B2 (priority 2018, dated 2019).
Read-outs that look alike come from different tables or passages of the source.

Experiments:
hROMK (human Kir1.1) [1] = biological target: T1, hROMK (human Kir1.1) (Homo sapiens (Human), UniProt P48048); assay: cell-based; settings: CHO T-Rex hROMK stable cell line; thallium flux; 10-point concentration response curve; read-out: Human ROMK Th Flux IC50
hERG channels = hERG channels (Homo sapiens (Human), UniProt Q12809); assay: hERG Manual Patch Clamp Assay; format: cell-based; settings: human, HEK 293 cells stably expressing hERG channels, pH 7.4, 1 uM, read-out: hERG EP % Inh @ 1 uM
Sequence of hERG channels (Q12809 whole entry): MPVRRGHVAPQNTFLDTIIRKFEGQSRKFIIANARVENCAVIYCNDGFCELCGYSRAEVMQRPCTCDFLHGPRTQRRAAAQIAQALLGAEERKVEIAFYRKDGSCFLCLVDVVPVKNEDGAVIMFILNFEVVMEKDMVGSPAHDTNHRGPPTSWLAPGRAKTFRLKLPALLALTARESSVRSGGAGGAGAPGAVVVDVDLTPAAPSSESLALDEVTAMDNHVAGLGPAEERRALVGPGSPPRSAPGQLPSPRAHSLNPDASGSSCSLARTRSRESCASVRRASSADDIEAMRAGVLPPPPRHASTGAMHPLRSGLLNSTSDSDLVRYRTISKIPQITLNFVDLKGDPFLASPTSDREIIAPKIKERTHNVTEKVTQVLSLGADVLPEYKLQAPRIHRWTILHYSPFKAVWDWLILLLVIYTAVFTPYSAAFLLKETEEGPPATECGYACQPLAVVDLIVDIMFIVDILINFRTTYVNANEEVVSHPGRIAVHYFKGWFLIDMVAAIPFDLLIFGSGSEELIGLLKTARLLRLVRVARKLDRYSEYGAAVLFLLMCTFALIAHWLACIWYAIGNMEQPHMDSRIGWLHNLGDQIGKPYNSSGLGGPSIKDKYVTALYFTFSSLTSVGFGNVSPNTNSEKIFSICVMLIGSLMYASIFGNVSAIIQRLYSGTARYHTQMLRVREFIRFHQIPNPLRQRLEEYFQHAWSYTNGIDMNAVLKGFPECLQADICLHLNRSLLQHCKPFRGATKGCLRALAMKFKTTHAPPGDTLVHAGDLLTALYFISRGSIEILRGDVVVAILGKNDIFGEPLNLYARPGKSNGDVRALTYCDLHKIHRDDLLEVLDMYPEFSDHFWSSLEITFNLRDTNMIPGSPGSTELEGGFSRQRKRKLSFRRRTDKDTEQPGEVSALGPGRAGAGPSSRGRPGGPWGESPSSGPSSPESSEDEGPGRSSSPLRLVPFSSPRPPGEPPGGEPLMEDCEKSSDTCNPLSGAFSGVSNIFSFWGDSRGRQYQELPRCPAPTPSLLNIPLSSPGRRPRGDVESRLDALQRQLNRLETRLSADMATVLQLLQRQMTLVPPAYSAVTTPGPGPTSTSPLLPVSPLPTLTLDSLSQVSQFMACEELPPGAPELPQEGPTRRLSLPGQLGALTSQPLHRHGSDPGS
Protocol: hERG electrophysiology assay: The experimental compounds were assessed for hERG activity on HEK 293 cells stably expressing hERG channels using patch clamp technique. Coverslips plated with hERG expressing cells were placed in the experimental chamber and were perfused with a solution composed of (in mM): 140 NaCl, 4 KCl, 1.8 CaCl2, 1 MgCl2, 10 Glucose, 10 HEPES (pH 7.4, NaOH) at room temperature. Borosilicate patch pipettes had tip resistances of 2-4 Mohms when filled with an internal solution containing: 130 KCl, 1 MgCl2, 1 CaCl2, 10 EGTA, 10 HEPES, 5 ATP-K2 (pH 7.2, KOH). The cells were clamped at −80 mV in whole cell configuration using an Axopatch 200B (Axon instruments, Union City, Calif.) patch clamp amplifier controlled by pClamp (Axon instruments) software. Upon formation of a gigaseal, the following voltage protocol was repeatedly (0.05 Hz) applied to record tail currents: depolarization step from −80 mV to +20 mV for 2 seconds followed by a hyperpolarization step to −65 mV (3 seconds) to elicit tail currents. Compounds were applied after stabilization of tail current. First, tail currents were recorded in presence of extracellular solution alone (control) and subsequently, in extracellular solution containing increasing compound concentrations. Each compound concentration was applied for 2-5 minutes. The percentage inhibition at each concentration was calculated as reduction in peak tail current with respect to the peak tail current recorded in the presence of control solution. Data analysis was performed in a custom made template. The percent inhibitions at different concentrations were plotted to obtain a concentration response curve, which was subsequently fitted with a four parameter equation to calculate hERG IC50 value.

hROMK (human Kir1.1) [2] = biological target: T1, hROMK (human Kir1.1); assay: cell-based; format: cell-based; settings: whole-cell manual patch clamp, CHO T-Rex hROMK stable cell line, voltage step to -120 mV, Ba2+-subtracted hROMK current; read-out: ROMK EP IC50
Protocol: ROMK Manual Patch Clamp Assay
Cell culture conditions: Cells were maintained in conditions similar to those for Thallium flux assay. hROMK channel expression was induced by adding 0.6 μg/ml of Doxycycline 16-24 hrs prior to the experiments. On the day of experiment, the cells were dissociated using Versene, resuspended in growth media and plated onto coverslips 15 minutes prior to use.
Electrophysiology: The coverslip plated with cells was placed in the experiment chamber perfused with bath solution composed of (in mM): 135 NaCl, 5 KCl, 2 CaCl2, 1 MgCl2, 10 HEPES, 5 Glucose (pH 7.4). Patch pipettes with resistance between 2-5 Megaohms, when filled with a solution containing (in mM): 135 KCl, 1 EGTA, 1 MgCl2, 10 HEPES, 2 Na2ATP (pH 7.3), were used to form gigaseals. The cells were voltage clamped at −75 mV in whole-cell configuration using an Axopatch 200b or Multiclamp 700b (Molecular Devices) amplifier controlled by pClamp Software (Molecular Devices). The current was recorded by applying a voltage step to −120 mV every 10 seconds. […] At the end of the experiment, the cells were perfused with bath solution containing 2 mM Ba^2+ to isolate the contribution of hROMK current.
Data analysis: Raw current values (5 traces each for control, different compound concentration and Ba^2+ treatment groups) were exported from Clampfit into Microsoft Excel where the current remaining after application of Ba^2+ was subtracted from raw current to obtain hROMK specific current.

T1 sequence (P48048 whole entry): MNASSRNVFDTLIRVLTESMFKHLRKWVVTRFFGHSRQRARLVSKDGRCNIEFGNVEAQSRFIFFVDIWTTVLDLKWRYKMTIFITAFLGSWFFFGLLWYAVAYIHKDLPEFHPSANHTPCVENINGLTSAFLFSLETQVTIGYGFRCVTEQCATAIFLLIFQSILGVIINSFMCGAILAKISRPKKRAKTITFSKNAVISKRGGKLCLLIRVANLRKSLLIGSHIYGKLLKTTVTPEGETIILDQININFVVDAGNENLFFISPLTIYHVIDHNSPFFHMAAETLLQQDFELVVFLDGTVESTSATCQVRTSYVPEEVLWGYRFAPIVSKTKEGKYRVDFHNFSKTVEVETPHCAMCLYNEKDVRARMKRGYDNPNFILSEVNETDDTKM

| SMILES | IC50 (hROMK (human Kir1.1) [1]) [nM] | inhibition at 1 µM (hERG channels) [%] | IC50 (hROMK (human Kir1.1) [2]) [nM] |
| --- | --- | --- | --- |
| Cc1c([C@@H]2CN(Cc3cnn(-c4ccnc(C(F)F)c4)c3)C[C@H](C)N2)ccc2c1COC2=O [Example 127-I, 5-((2R,6S)-4-((1-(2-(difluoromethyl)pyridin-4-yl)-1H-pyrazol-4-yl)methyl)-6-methylpiperazin-2-yl)-4-methylisobenzofuran-1(3H)-one] | 21 | 16 | 14 |
| COc1cc(-n2cc(CN3CCN[C@H](c4ccc5c(c4C)COC5=O)C3)nn2)nc(C)c1C#N [Example 187-I, (R)-4-methoxy-2-methyl-6-(4-((3-(4-methyl-1-oxo-1,3-dihydroisobenzofuran-5-yl)piperaizn-1-yl)methyl)-1H-1,2,3-triazol-1-yl)nicotinonitrile] | 43 | 11 | 25 |
| Cc1cc(-n2ncc(C(C)N3CCN[C@H](c4ccc5c(c4C)COC5=O)C3)n2)ncc1C#N (single isomer, unassigned) [Example 121-I] | 31 | 10 | 740 |
| Cc1nc(-n2cc(CN3CCN[C@H](c4ccc5c(c4C)COC5=O)C3)cn2)ncc1C#N [Example 230-I, (R)-4-methyl-2-(4-((3-(4-methyl-1-oxo-1,3-dihydroisobenzofuran-5-yl)piperazin-1-yl)methyl)-1H-pyrazol-1-yl)pyrimidine-5-carbonitrile] | 32 | 2.2 | 19 |
| Cc1ncn(-c2ccc(CN3CCN[C@H](c4ccc5c(c4C)COC5=O)C3)cn2)n1 [Example 67-I, (R)-4-methyl-5-(4-((6-(3-methyl-1H-1,2,4-tri-azol-1-yl)pyridin-3-yl)methyl)piperazin-2-yl) isobenzofuran-1(3H)-one] | 110 | 7.1 | 29 |
| COc1cc(-n2cc(CN3CCN[C@H](c4ccc5c(c4C)COC5=O)C3)nn2)ncc1C#N [Example 255-I, (R)-4-methoxy-6-(4-((3-(4-methyl-1-oxo-1,3-dihydroisobenzofuran-5-yl)piperazin-1-yl)methyl)-1H-1,2,3-triazol-1-yl)nicotinonitrile] | 33 | 9.5 | 9.1 |
| Cc1cn(-c2ncc(CN3CCN[C@H](c4ccc5c(c4C)COC5=O)C3)cn2)c(C)n1 [Example 139-I, (R)-5-(4-((2-(2,4-dimethyl-1H-imidazol-1-yl)pyrimidin-5-yl)methyl)piperazin-2-yl)-4-methylisobenzofuran-1(3H)-one] | 36 | 6.6 | 30 |
| COc1cc(-n2cnc(CN3C[C@@H](c4ccc5c(c4C)COC5=O)N[C@@H](C)C3)c2)ccc1C#N [Example 101-I, 2-methoxy-4-(4-(((3S,5R)-3-methyl-5-(4-methyl-1-oxo-1,3-dihydroisobenzofur-an-5-yl)piperazin-1-yl)methyl)-1H-imidazol-1-yl)benzonitrile] | 26 | 3 | 34 |
| Cc1cc(-c2cc(CN3CC[C@@H](O)[C@H](c4ccc5c(c4C)COC5=O)C3)on2)ncc1C#N [Example 193-I, 6-(5-(((3R,4R)-4-hydroxy-3-(4-methyl-1-oxo-1,3-dihydroisobenzofuran-5-yl)piperidin-1-yl)methyl)isoxazol-3-yl)-4-methylnicotinonitrile] | 44 | 14 | 20 |
| Cc1cc(-n2cc(CN3CCO[C@H](c4ccc5c(c4C)COC5=O)C3)cn2)ncc1C#N [Example 1-I, (R)-4-methyl-6-(4-((2-(4-methyl-1-oxo-1,3-dihydroisobenzofuran-5-yl)morpholino)methyl)-1H-pyrazol-1-yl)nicotinonitrile] | 14 | 26 | 11 |
